Data as given in the NIST ThermoML archive (doi:10.1021/je060139a).

Experiments:
[1] = xn = mol fraction of the nth substance listed; conditions: Wilhelmy plate method
[2] = refractive index (Na D-line) (dimensionless); xn = mol fraction of the nth substance listed; conditions: 100.5 kPa, Liquid, Standard Abbe refractometry

CC(=O)OCc1ccccc1 [benzyl ethanoate] + CCO
Conditions | refractive index, 288.15 K | refractive index, 298.18 K | refractive index, 308.15 K | refractive index, 318.15 K | surface tension liquid-gas, 288.15 K [mN/m] | surface tension liquid-gas, 298.18 K [mN/m] | surface tension liquid-gas, 308.15 K [mN/m] | surface tension liquid-gas, 318.15 K [mN/m]
[1], x1 = 0.05 | – | – | – | – | 24 | 23.2 | 22.3 | 21.3
[1], x1 = 0.1 | – | – | – | – | 24.8 | 23.9 | 23 | 22
[1], x1 = 0.15 | – | – | – | – | 25.5 | 24.57 | 23.63 | 22.6
[1], x1 = 0.2 | – | – | – | – | 26.1 | 25.18 | 24.23 | 23.2
[1], x1 = 0.25 | – | – | – | – | 26.7 | 25.77 | 24.83 | 23.8
[1], x1 = 0.3 | – | – | – | – | 27.3 | 26.36 | 25.43 | 24.4
[1], x1 = 0.35 | – | – | – | – | 28 | 27.02 | 26.07 | 25.03
[1], x1 = 0.4 | – | – | – | – | 28.7 | 27.69 | 26.72 | 25.66
[1], x1 = 0.45 | – | – | – | – | 29.4 | 28.37 | 27.38 | 26.3
[1], x1 = 0.5 | – | – | – | – | 30.1 | 29.02 | 28.03 | 26.93
[1], x1 = 0.55 | – | – | – | – | 30.8 | 29.69 | 28.67 | 27.56
[1], x1 = 0.6 | – | – | – | – | 31.5 | 30.36 | 29.3 | 28.17
[1], x1 = 0.65 | – | – | – | – | 32.2 | 31.02 | 29.94 | 28.78
[1], x1 = 0.7 | – | – | – | – | 32.9 | 31.68 | 30.58 | 29.41
[1], x1 = 0.75 | – | – | – | – | 33.62 | 32.37 | 31.24 | 30.06
[1], x1 = 0.8 | – | – | – | – | 34.4 | 33.08 | 31.93 | 30.75
[1], x1 = 0.85 | – | – | – | – | 35.2 | 33.92 | 32.8 | 31.6
[1], x1 = 0.9 | – | – | – | – | 36.1 | 34.8 | 33.7 | 32.45
[1], x1 = 0.95 | – | – | – | – | 36.9 | 35.6 | 34.5 | 33.3
[1], x1 = 1 | – | – | – | – | 37.7 | 36.4 | 35.3 | 34.1
[2], x1 = 0.05 | 1.38022 | 1.37602 | 1.37164 | 1.36738 | – | – | – | –
[2], x1 = 0.1 | 1.39462 | 1.39033 | 1.38588 | 1.38161 | – | – | – | –
[2], x1 = 0.15 | 1.40725 | 1.40288 | 1.39843 | 1.39409 | – | – | – | –
[2], x1 = 0.2 | 1.41836 | 1.41395 | 1.40945 | 1.40506 | – | – | – | –
[2], x1 = 0.25 | 1.42813 | 1.42372 | 1.41929 | 1.41487 | – | – | – | –
[2], x1 = 0.3 | 1.43696 | 1.43255 | 1.4281 | 1.42364 | – | – | – | –
[2], x1 = 0.35 | 1.44489 | 1.44048 | 1.43604 | 1.43155 | – | – | – | –
[2], x1 = 0.4 | 1.45211 | 1.44767 | 1.44323 | 1.4387 | – | – | – | –
[2], x1 = 0.45 | 1.45868 | 1.4542 | 1.44974 | 1.44517 | – | – | – | –
[2], x1 = 0.5 | 1.4647 | 1.46016 | 1.45571 | 1.4511 | – | – | – | –
[2], x1 = 0.55 | 1.4702 | 1.46565 | 1.46119 | 1.45653 | – | – | – | –
[2], x1 = 0.6 | 1.47521 | 1.47065 | 1.46619 | 1.46154 | – | – | – | –
[2], x1 = 0.65 | 1.47987 | 1.47531 | 1.47082 | 1.46613 | – | – | – | –
[2], x1 = 0.7 | 1.48418 | 1.47958 | 1.47508 | 1.47036 | – | – | – | –
[2], x1 = 0.75 | 1.48819 | 1.48358 | 1.47907 | 1.47434 | – | – | – | –
[2], x1 = 0.8 | 1.49191 | 1.48729 | 1.48279 | 1.47804 | – | – | – | –
[2], x1 = 0.85 | 1.49539 | 1.49076 | 1.48626 | 1.48148 | – | – | – | –
[2], x1 = 0.9 | 1.49871 | 1.49408 | 1.48959 | 1.48481 | – | – | – | –
[2], x1 = 0.95 | 1.5017 | 1.49709 | 1.49262 | 1.48783 | – | – | – | –
[2], x1 = 1 | 1.50439 | 1.49982 | 1.49539 | 1.49064 | – | – | – | –
